Assay results published in patent US20230312449A1, “CARBOXYLIC ACID COMPOUND, AND PREPARATION METHOD THEREFOR AND APPLICATION THEREOF” (BOTREE CYCLING SCI & TECH CO., LTD., priority 2020, published 2023).
Where “and” joins values, the source holds several entries; their conditions need not be identical. Equal values may be shown once.

Assay: Solubility of extractant in extraction system, oil content by CH2Cl2 extraction and weighing (Ni/Mg chloride system)
Format: physicochemical
Settings: 0.62 mol/L in Escaid 110; saponification 24%; nickel chloride solution 1.33 g/L Ni, 4 g/L Mg; 30 min; 25° C.
Procedure: Compound BC195 and diluent Escaid 110 were prepared into a 0.62 mol/L solution, and an aqueous phase was a magnesium-enriched nickel chloride solution containing 1.33 g/L Ni and 4 g/L Mg; 100 mL of the organic phase was added in a 250 mL separatory funnel, 10 mol/L sodium hydroxide aqueous solution was added for saponification to a saponification proportion of 24%, and after the saponification, 100 mL of the aqueous phase was added, extraction equilibrium was carried out for 30 min, and the temperature was 25° C.
Oil content test: the aqueous phase was separated out and added with H2SO4, and the [H^+] concentration of the aqueous phase solution was about 1 mol/L. The CH2Cl2 was used for extraction (30 mL×3), and the CH2Cl2 layer was collected, dried with 1 g anhydrous Na2SO4 to remove the water in CH2Cl2, and filtered; the filtrate was subjected to rotary evaporation, and then the residue was dried with an oil pump for 30 min. The oil content which CH2Cl2 extracted out in the system was obtained by weighing the flask before and after the rotary evaporation.
This comparative example differs from Performance Example 6 in that Compound BC195 was replaced by Extractant CA12 (commercially available, with an acid content of 98%).

Equilibrium pH: 7.2 and 7.23
SMILES: CCCCCCC(OCC(CC)CCCC)C(=O)O (stereo not shown) [Compound BC195]
